For this assay, the target named is S. cerevisiae eIF2B mutant, luciferase reporter luminescence. Nature of the assay: eIF2B reporter inhibitors in yeast strains, dose response, S. cerevisiae, mutant, wild-type, luminescence, growth (AID 792).
[1] abbreviates: measured here: mutant yeast growth.

Structures are written as SMILES. Results filed as inconclusive are left out. The source made the active and inactive calls. The rule behind the calls is not given here.

In the case of `COc1ccc(NC(=O)C(=O)NCCN2CCN(C(=O)c3cccs3)CC2)cc1`, the IC50 (usually the concentration that inhibits the measured activity by half) was > 100 µM (inactive). Under setting [1], this compound had an IC50 above 100 µM.
On the same counts, the results for `COC(=O)c1ccccc1NC(=O)CSc1nc(-c2ccco2)cc(C(F)(F)F)n1` are > 100 µM (inactive) and above 100 µM.
Consider `O=C(NCCc1ccccn1)c1cccc(S(=O)(=O)N2CCCCCC2)c1`, for which the IC50 was > 100 µM (inactive). The compound also came in with an IC50 under setting [1] above 100 µM.
Taken in the same sequence, the figures for `COc1ccc2c(c1)CCc1c(C(=O)NCc3cccnc3)noc1-2` were > 100 µM (inactive) and above 100 µM.
As for `CCOC(=O)Cc1csc(NC(=O)CCc2ccc(S(=O)(=O)N3CCOCC3)cc2)n1`, the IC50 is > 100 µM (inactive). For the same compound, the IC50 under setting [1] was above 100 µM.
In the case of `Cc1nc2ccc(NC(=O)Cc3ccsc3)cc2s1`, the IC50 is > 100 µM (inactive). The 50% inhibitory concentration (IC50) under setting [1] was above 100 µM.
Taken in the same sequence, the figures for `Cc1[nH]c(=O)c(C#N)c2c1CSC(C)(C)C2` were > 100 µM (inactive) and above 100 µM.
In the case of `CN(C)C(=O)Oc1ccc(OC(=O)c2ccccc2)cc1`, under setting [1], the half-maximal inhibitory concentration (IC50) was above 100 µM.
`CN1C(=O)N(C)C2(c3ccccc3)NC(=O)NC12c1ccccc1` (stereo unspecified): the IC50 is > 100 µM (inactive). Also, under setting [1], the IC50 is above 100 µM.
`CCN(CC)c1ncnc2sc(C(=O)N3CCN(c4ccc(OC)cc4)CC3)c(C)c12`: the IC50 was > 100 µM (inactive). Under setting [1], the IC50 was above 100 µM.
As to `CC(=O)c1ccc(NC(=O)c2noc3c2CCCCC3)cc1`, the IC50 is > 100 µM (inactive). Under setting [1], the IC50 is above 100 µM.
With `COc1cccc(C(=O)Nc2cccc(C(=O)N3CCOCC3)c2)c1`, the IC50 is > 100 µM (inactive). In addition, the IC50 under setting [1] was above 100 µM.
With `COc1ccccc1CNC(=O)CN1CCC(NC(=O)c2ccccc2F)CC1`, the IC50 was > 100 µM (inactive). Under setting [1], this compound displayed a half-maximal inhibitory concentration (IC50) above 100 µM.
For the compound `CC1(C)Cc2c(c(=S)nc(-c3ccccc3)n2CCOCCO)CO1`, the IC50 was > 100 µM (inactive). Further, under setting [1], the IC50 is above 100 µM.
`COc1ccc(NC(=O)c2ccco2)cc1NC(=O)c1ccc(C)cc1`: the IC50 is > 100 µM (inactive). Moreover, the IC50 under setting [1] was above 100 µM.
As to `CC(=O)Nc1cc(C(F)(F)F)ccc1OCCOc1ccccc1`, the IC50 is > 100 µM (inactive). Further, the IC50 under setting [1] was above 100 µM.
On the same counts, the results for `O=C(CSc1nccc(=O)[nH]1)N1CCCc2ccccc21` are > 100 µM (inactive) and above 100 µM.
In the case of `Cc1csc(NC(=O)c2cccn2C)n1`, the IC50 result is “inactive”. For the setting “S. cerevisiae wild-type, luminescence”, the half-maximal inhibitory concentration (IC50) was 16.4 µM. This compound also gave an IC50 under setting [1] above 100 µM.
As for `CCC(C)(C)n1nnnc1CN(Cc1cccs1)Cc1cc2cc(OC)ccc2[nH]c1=O`, the IC50 is > 100 µM (inactive). Also, the concentration for half-maximal inhibition (IC50) under setting [1] was above 100 µM.
For `CC(=O)c1cnc(Nc2nc(C)c3cc(C)c(C)cc3n2)nc1C`, the IC50 was > 100 µM (inactive). The half-maximal inhibitory concentration (IC50) under setting [1] is above 100 µM.
On to `CNc1nc2ccccc2n1/N=C/c1cccc(OC)c1OC`, for which the IC50 was > 100 µM (inactive). Also, under setting [1], the IC50 was above 100 µM.
Regarding `CCOC(=O)CSc1nncc2ccc(OC)c(OC)c12`, the IC50 was > 100 µM (inactive). Also, the half-maximal inhibitory concentration (IC50) under setting [1] was above 100 µM.
Taken in the same sequence, the figures for `CCCCC(=O)Nc1ccc(N2CCN(S(C)(=O)=O)CC2)cc1` were > 100 µM (inactive) and above 100 µM.
Consider `COc1ccc(C(=O)CSc2nnc(COc3ccccc3)n2Cc2ccco2)cc1`, for which the IC50 was > 100 µM (inactive). Moreover, the IC50 under setting [1] was above 100 µM.
Take `N#CC(C(=O)OC1CCCCC1)c1nc2ccccc2nc1N1CCOCC1` (stereo unspecified): the IC50 is > 100 µM (inactive). Under setting [1], the half-maximal inhibitory concentration (IC50) is above 100 µM.
As to `N#Cc1cc2ccccc2nc1SCc1cccnc1`, the IC50 was > 100 µM (inactive). Further, the IC50 under setting [1] is above 100 µM.
Regarding `CCCCN(Cc1ccccc1)S(=O)(=O)c1ccc2[nH]c(=O)oc2c1`, the IC50 was > 100 µM (inactive). Under setting [1], this compound gave a concentration for half-maximal inhibition (IC50) above 100 µM.
On the same counts, the results for `COc1ccccc1Nc1nc(C)cc(C)c1C(N)=O` are > 100 µM (inactive) and above 100 µM.

Source of the values: PubChem BioAssay AID792 (PCMD, 2007).
